In assay [1] the target is T1, recombinant N-terminal GST-tagged human Rho kinase 2 (ROCK2, amino acids 1-552) (Homo sapiens, UniProt O75116).
T1 construct: ROCK2, amino acids 1-552; purchased Invitrogen Inc. PV3759
The assay is described as follows: In vitro Rho kinase assay (luciferase-based ATP consumption), ROCK2. Format: biochemical. Summed up: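 GST-ROCK2 (aa 1-552, 0.82 μg/ml) with 100 μg/ml S6 peptide and 3 µM ATP in Tris pH 7.5 buffer with MgCl2/CaCl2/EGTA/BSA, compound added just after reaction start, 2 h at 30 °C. Remaining ATP read by luciferase luminescence. Efficacy expressed as percentage of H-1152P positive control.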

Assay [2] concerns the target T2, recombinant N-terminal GST-tagged human Rho kinase 1 (ROCK1, amino acids 1-535) (Homo sapiens, UniProt Q13464).
T2 construct: ROCK1, amino acids 1-535; purchased Invitrogen Inc. PV-3691
The assay is described as follows: In vitro Rho kinase assay (luciferase-based ATP consumption), ROCK1. It counts as biochemical. How it is done:
In Vitro Rho Kinase Assay
Rho kinase biochemical assays described below depend on firefly luciferase-based, indirect measurement of total ATP consumption by the kinase following incubation with substrate and ATP. 25 μl of Rho kinase assay buffer (20 mM Tris-HCL [pH 7.5], 1 mM MgCl2, 0.4 mM CaCl2, 0.15 mM EGTA, 0.1 mg/ml bovine serum albumin) containing 0.82 μg/ml of recombinant N-terminal GST-tagged human Rho kinase 1 (ROCK1, amino acids 1-535, Invitrogen Inc., cat. #PV-3691) or recombinant N-terminal GST-tagged human Rho kinase 2 (ROCK2, amino acids 1-552, Invitrogen Inc., cat #PV3759), 100 μg/ml S6 peptide substrate (related to amino acids 218-249 of the human 40S ribosomal protein S6, and suitable for ROCK1 or ROCK2, e.g. Upstate/Millipore Inc., cat #12-420), and 3 µM ATP are dispensed to wells of a 384 multi-well opaque plate. The plate is centrifuged for 30 seconds at approximately 200×g. 240 nl of test compound in DMSO is dispensed to each well by passive pin transfer. The lag phase of this in vitro kinase reaction permits addition of compounds soon after the reaction initiates. The reaction is allowed to incubate at 30° C. for 2 hours. The assay plates are sealed and maintained in a humidified environment. After 2 hours, 25 μl of easylite protein kinase assay reagent (Perkin-Elmer, Inc.) is dispensed. After an additional 10 minute incubation at room temperature (about 22° C.), luminescence activity is measured on a Molecular Devices Analyst multi-mode plate reader or other suitable plate reader. Kinase inhibition results in less ATP consumption, and therefore increased luminescence signal. Negative control activity is measured with DMSO lacking any test compound. The positive control is 2-methyl-1-(4-methylisoquinolin-5-ylsulfonyl)perhydro-1,4-diazepine hydrochloride (aka H-1152P, HCl salt). Efficacy is measured as a percentage of positive control activity. […] The designation NT means the cited example was not tested.

Where [3] appears, read: recombinant GST-tagged human ROCK2, luciferase-based ATP consumption, read-out: ROCK2 IC50.
[4] abbreviates: recombinant GST-tagged human ROCK1, luciferase-based ATP consumption, read-out: ROCK1 IC50.
Where [5] appears, read: ROCK2 IC50, recombinant GST-tagged human ROCK2, luciferase-based ATP consumption.
[6] abbreviates: ROCK1 IC50, recombinant GST-tagged human ROCK1, luciferase-based ATP consumption.

Molecules are shown by their SMILES. Like-named read-outs stand apart in the source and are kept apart here.

T1 sequence (O75116 1-552): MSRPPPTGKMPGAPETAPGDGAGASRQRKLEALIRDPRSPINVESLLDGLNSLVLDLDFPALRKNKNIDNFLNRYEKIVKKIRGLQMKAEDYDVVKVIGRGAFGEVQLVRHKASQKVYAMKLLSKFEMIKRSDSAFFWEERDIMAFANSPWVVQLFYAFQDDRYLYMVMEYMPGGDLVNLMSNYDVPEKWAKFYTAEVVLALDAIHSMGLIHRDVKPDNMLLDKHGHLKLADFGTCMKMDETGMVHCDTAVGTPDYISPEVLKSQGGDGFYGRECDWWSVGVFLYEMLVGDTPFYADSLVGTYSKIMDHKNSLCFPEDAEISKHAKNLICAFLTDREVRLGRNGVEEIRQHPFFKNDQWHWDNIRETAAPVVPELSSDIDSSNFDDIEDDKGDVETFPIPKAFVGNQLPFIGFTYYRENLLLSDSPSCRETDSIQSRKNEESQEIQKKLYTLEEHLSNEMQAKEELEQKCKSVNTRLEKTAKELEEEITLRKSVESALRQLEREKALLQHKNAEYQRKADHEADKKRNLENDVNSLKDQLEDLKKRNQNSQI
T2 sequence (Q13464 1-535): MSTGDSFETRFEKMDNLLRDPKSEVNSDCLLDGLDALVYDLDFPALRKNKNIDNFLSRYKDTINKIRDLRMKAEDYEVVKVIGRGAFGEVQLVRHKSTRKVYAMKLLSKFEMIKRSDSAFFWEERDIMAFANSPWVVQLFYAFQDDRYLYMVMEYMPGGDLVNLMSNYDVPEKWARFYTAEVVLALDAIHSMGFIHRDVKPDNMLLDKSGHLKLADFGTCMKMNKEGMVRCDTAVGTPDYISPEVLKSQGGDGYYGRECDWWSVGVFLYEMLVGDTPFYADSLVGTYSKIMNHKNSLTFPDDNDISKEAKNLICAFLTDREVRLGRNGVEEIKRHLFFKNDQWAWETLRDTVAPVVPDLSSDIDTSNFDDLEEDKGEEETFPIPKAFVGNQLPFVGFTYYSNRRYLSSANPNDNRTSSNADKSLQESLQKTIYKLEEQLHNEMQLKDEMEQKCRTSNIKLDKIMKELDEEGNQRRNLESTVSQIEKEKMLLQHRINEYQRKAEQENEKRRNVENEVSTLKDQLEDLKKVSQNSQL

Regarding `Cc1c(-c2ccnc(N)n2)sc2ccc(CNC(=O)c3cscn3)cc12` [Example 116, Cc1c(sc2ccc(CNC(═O)c3cscn3)cc12)-c4ccnc(N)n4], the IC50 in assay [1] (setting [3]) is less than 5 µM; in assay [2] (setting [4]), more than 5 µM.
Turning to `Cc1c(-c2ccnc(N)n2)sc2ccc(CNC(=O)CC#N)cc12` [Example 97, Cc1c(sc2ccc(CNC(═O)CC#N)cc12)-c3ccnc(N)n3], the IC50 in assay [1] (setting [3]) and in assay [2] (setting [4]) was less than 5 µM in each case.
On to `CCOc1ccccc1C(=O)NCc1ccc2sc(-c3ccnc(N)n3)c(C)c2c1` [Example 174, CCOc1ccccc1C(═O)NCc2ccc3sc(c(C)c3c2)-c4ccnc(N)n4], for which the IC50 in assay [1] (setting [3]) and in assay [2] (setting [4]) was more than 5 µM throughout.
Consider `Cc1c(-c2ccnc(N)n2)sc2ccc(Oc3cccc([N+](=O)[O-])c3)cc12` [Example 80, 4-(3-Methyl-5-(3-nitrophenoxy)benzo[b]thiophen-2-yl)pyrimidin-2-amine], for which the IC50 in assay [1] (setting [3]) and in assay [2] (setting [4]) was less than 5 µM throughout.
In the case of `Cc1c(-c2ccnc(N)n2)sc2ccc(CNC(=O)c3cc(F)c(F)cc3[N+](=O)[O-])cc12` [Example 272, Cc1c(sc2ccc(CNC(═O)c3cc(F)c(F)cc3[N+]([O−])═O)cc12)-c4ccnc(N)n4], the IC50 in assay [1] (setting [3]) was less than 5 µM; in assay [2] (setting [4]), more than 5 µM.
On to `Cc1c(-c2ccnc(N)n2)oc2ccc(Cc3cccc(O)c3)cc12` [Example 92, 3-((2-(2-Aminopyrimidin-4-yl)-3-methylbenzofuran-5-yl)methyl)phenol], for which the IC50 in assay [1] (setting [3]) and in assay [2] (setting [4]) was less than 5 µM throughout.
Turning to `Cc1c(-c2ccnc(N)n2)sc2ccc(CNC(=O)c3ccc(Cl)c(Br)c3)cc12` [Example 315, Cc1c(sc2ccc(CNC(═O)c3ccc(Cl)c(Br)c3)cc12)-c4ccnc(N)n4], the IC50 in assay [1] (setting [3]) and in assay [2] (setting [4]) was less than 5 µM in each case.
`Cc1c(-c2ccnc(N)n2)sc2ccc(CNC(=O)c3ccc(F)c(F)c3)cc12` [Example 157, Cc1c(sc2ccc(CNC(═O)c3ccc(F)c(F)c3)cc12)-c4ccnc(N)n4]: the IC50 was less than 5 µM in assay [1] (setting [3]) and more than 5 µM in assay [2] (setting [4]).
As for `Cc1c(-c2ccnc(N)n2)sc2ccc(CNC(=O)c3cccc(I)c3)cc12` [Example 320, Cc1c(sc2ccc(CNC(═O)c3cccc(I)c3)cc12)-c4ccnc(N)n4], the IC50 in assay [1] (setting [3]) was less than 5 µM; in assay [2] (setting [4]), more than 5 µM.
`COc1cccc(Sc2ccc3sc(-c4ccnc(N)n4)c(C)c3c2)c1` [Example 83, 4-(5-(3-Methoxyphenylthio)-3-methylbenzo[b]thiophen-2-yl)pyrimidin-2-amine]: the IC50 in assay [1] (setting [3]) and in assay [2] (setting [4]) was less than 5 µM each time.
Consider `Cc1c(-c2ccnc(N)n2)sc2ccc(CNC(=O)C3CCCO3)cc12` (stereo not shown) [Example 106, Cc1c(sc2ccc(CNC(═O)C3CCCO3)cc12)-c4ccnc(N)n4], for which the IC50 is less than 5 µM in assay [1] (setting [3]) and more than 5 µM in assay [2] (setting [4]).
Regarding `Cc1cc(C(=O)NCc2ccc3sc(-c4ccnc(N)n4)c(C)c3c2)n[nH]1` [Example 113, Cc1cc(n[nH]1)C(═O)NCc2ccc3sc(c(C)c3c2)-c4ccnc(N)n4], the IC50 was less than 5 µM in assay [1] (setting [3]) and more than 5 µM in assay [2] (setting [4]).
In the case of `Cc1c(-c2ccnc(N)n2)sc2ccc(CNC(=O)c3ccccc3Cl)cc12` [Example 147, Cc1c(sc2ccc(CNC(═O)c3ccccc3Cl)cc12)-c4ccnc(N)n4], the figures for the half-inhibitory concentration (IC50) in assay [1] (setting [5]) and in assay [2] (setting [6]) were less than 5 µM and more than 5 µM, respectively.
The corresponding values for `Cc1c(-c2ccnc(N)n2)sc2ccc(CNC(=O)c3cc([N+](=O)[O-])ccc3Cl)cc12` [Example 265, Cc1c(sc2ccc(CNC(═O)c3cc(ccc3Cl)[N+]([O−])═O)cc12)-c4ccnc(N)n4] are less than 5 µM and more than 5 µM.
On to `COc1ccc(C(=O)NCc2ccc3sc(-c4ccnc(N)n4)c(C)c3c2)c(OC)c1OC` [Example 280, COc1ccc(C(═O)NCc2ccc3sc(c(C)c3c2)-c4ccnc(N)n4)c(OC)c1OC], for which the IC50 was less than 5 µM in assay [1] (setting [3]) and more than 5 µM in assay [2] (setting [4]).
As to `COc1cc(Cl)ccc1C(=O)NCc1ccc2sc(-c3ccnc(N)n3)c(C)c2c1` [Example 233, COc1cc(Cl)ccc1C(═O)NCc2ccc3sc(c(C)c3c2)-c4ccnc(N)n4], the IC50 in assay [1] (setting [3]) and in assay [2] (setting [4]) was less than 5 µM each time.
Regarding `Cc1c(-c2ccnc(N)n2)sc2ccc(CNC(=O)C(Cc3ccccn3)NC(=O)OC(C)(C)C)cc12` (stereo not shown) [Example 326, Cc1c(sc2ccc(CNC(═O)[C](Cc3ccccn3)NC(═O)OC(C)(C)C)cc12)-c4ccnc(N)n4], the IC50 in assay [1] (setting [3]) was more than 5 µM; in assay [2] (setting [4]), less than 5 µM.
For `Cc1c(-c2ccnc(N)n2)sc2ccc(CNC(=O)c3ccc4c(c3)OCO4)cc12` [Example 172, Cc1c(sc2ccc(CNC(═O)c3ccc4OCOc4c3)cc12)-c5ccnc(N)n5], in that order: less than 5 µM and less than 5 µM.
With `CC(=O)Oc1ccccc1C(=O)NCc1ccc2sc(-c3ccnc(N)n3)c(C)c2c1` [Example 211, CC(═O)Oc1ccccc1C(═O)NCc2ccc3sc(c(C)c3c2)-c4ccnc(N)n4], the IC50 in assay [1] (setting [3]) and in assay [2] (setting [4]) was less than 5 µM in each case.
Regarding `Cc1c(-c2ccnc(N)n2)sc2ccc(CNC(=O)C(CC(C)C)NC(=O)OC(C)(C)C)cc12` (stereo not shown) [Example 323, CC(C)C[C](NC(═O)OC(C)(C)C)C(═O)NCc1ccc2sc(c(C)c2c1)-c3ccnc(N)n3], the values for the IC50 in assay [1] (setting [3]) and in assay [2] (setting [4]) were more than 5 µM and less than 5 µM, respectively.
For `Cc1ccc(C(=O)NCc2ccc3sc(-c4ccnc(N)n4)c(C)c3c2)c(C)c1` [Example 131, Cc1ccc(c(C)c1)C(═O)NCc2ccc3sc(c(C)c3c2)-c4ccnc(N)n4], in that order: less than 5 µM and less than 5 µM.
For `COc1cccc(OC)c1C(=O)NCc1ccc2sc(-c3ccnc(N)n3)c(C)c2c1` [Example 220, COc1cccc(OC)c1C(═O)NCc2ccc3sc(c(C)c3c2)-c4ccnc(N)n4], the IC50 is less than 5 µM in assay [1] (setting [3]) and more than 5 µM in assay [2] (setting [4]).
On to `COc1cc(OC)c(C(=O)NCc2ccc3sc(-c4ccnc(N)n4)c(C)c3c2)c(OC)c1` [Example 277, COc1cc(OC)c(C(═O)NCc2ccc3sc(c(C)c3c2)-c4ccnc(N)n4)c(OC)c1], for which the IC50 in assay [1] (setting [3]) and in assay [2] (setting [4]) was less than 5 µM throughout.
On to `Cc1c(-c2ccnc(N)n2)sc2ccc(CNC(=O)C(Cc3ccccc3)NC(=O)OC(C)(C)C)cc12` (stereo not shown) [Example 325, Cc1c(sc2ccc(CNC(═O)[C](Cc3ccccc3)NC(═O)OC(C)(C)C)cc12)-c4ccnc(N)n4], for which the IC50 in assay [1] (setting [3]) is more than 5 µM; in assay [2] (setting [4]) it was less than 5 µM.
For `COc1ccc(C(=O)NCc2ccc3sc(-c4ccnc(N)n4)c(C)c3c2)cc1` [Example 138, COc1ccc(cc1)C(═O)NCc2ccc3sc(c(C)c3c2)-c4ccnc(N)n4], the IC50 in assay [1] (setting [3]) was less than 5 µM; in assay [2] (setting [4]), more than 5 µM.
The corresponding values for `Cc1c(-c2ccnc(N)n2)sc2ccc(CNC(=O)C(C)c3ccc(O)cc3)cc12` (stereo not shown) [Example 178, CC(C(═O)NCc1ccc2sc(c(C)c2c1)-c3ccnc(N)n3)c4ccc(O)cc4] are less than 5 µM and less than 5 µM.
With `COc1ccc(C=CC(=O)NCc2ccc3sc(-c4ccnc(N)n4)c(C)c3c2)cc1O` [Example 256, COc1ccc(C═CC(═O)NCc2ccc3sc(c(C)c3c2)-c4ccnc(N)n4)cc1O], the IC50 in assay [1] (setting [3]) and in assay [2] (setting [4]) was less than 5 µM each time.
In the case of `Cc1c(-c2ccnc(N)n2)sc2ccc(Nc3ccccn3)cc12` [Example 64, 4-(3-Methyl-5-(pyridin-2-ylamino)benzo[b]thiophen-2-yl)pyrimidin-2-amine], the concentration for half-maximal inhibition (IC50) in assay [1] (setting [3]) and in assay [2] (setting [4]) was less than 5 µM throughout.
On to `Cc1c(-c2cc(N)ncn2)sc2ccc(Cl)cc12` [Example 8, 6-(5-Chloro-3-methylbenzo[b]thiophen-2-yl)pyrimidin-4-amine], for which the 50% inhibitory concentration (IC50) in assay [1] (setting [3]) and in assay [2] (setting [4]) was more than 5 µM throughout.
For the molecule `Cc1c(-c2ccnc(N)n2)sc2ccc(CNC(=O)c3ccc([N+](=O)[O-])cc3Cl)cc12` [Example 266, Cc1c(sc2ccc(CNC(═O)c3ccc(cc3Cl)[N+]([O−])═O)cc12)-c4ccnc(N)n4], the results for the IC50 in assay [1] (setting [5]) and in assay [2] (setting [6]) were less than 5 µM and more than 5 µM, respectively.
For the molecule `Cc1c(-c2ccnc(N)n2)sc2ccc(CNC(=O)C(NC(=O)OC(C)(C)C)C(C)C)cc12` (stereo not shown) [Example 293, CC(C)[C](NC(═O)OC(C)(C)C)C(═O)NCc1ccc2sc(c(C)c2c1)-c3ccnc(N)n3], the IC50 in assay [2] (setting [4]) was more than 5 µM.

A word on the IC50: it is the concentration that gives 50% inhibition.
